As usually defined, the IC50 is the midpoint of a concentration-inhibition curve.

The record followed here is patent publication US9156845B2, “4-(substituted amino)-7H-pyrrolo[2,3-d] pyrimidines as LRRK2 inhibitors” (Pfizer Inc., priority 2012, dated 2015).

Molecules are shown by their SMILES.

Experiment [1] concerns the target GST-tagged truncated LRRK2 (Homo sapiens (Human), UniProt Q5S007). In words: LRRK2 Lantha Screen kinase assay. Type of experiment: biochemical. To be noted: geometric mean of 2-5 determinations unless otherwise indicated (a: >=6 determinations; b: single determination); read-out: LRRK2 WT IC50.
The target of another experiment is mutant G2019S LRRK2 (Homo sapiens (Human), UniProt Q5S007, G2019S). Description: LRRK2 Lantha Screen kinase assay, mutant enzyme. Type of experiment: biochemical. To be noted: geometric mean of 2-5 determinations unless otherwise indicated (a: >=6 determinations; b: single determination).
Chain of mutant G2019S LRRK2 (Q5S007 970-2527 G2019S): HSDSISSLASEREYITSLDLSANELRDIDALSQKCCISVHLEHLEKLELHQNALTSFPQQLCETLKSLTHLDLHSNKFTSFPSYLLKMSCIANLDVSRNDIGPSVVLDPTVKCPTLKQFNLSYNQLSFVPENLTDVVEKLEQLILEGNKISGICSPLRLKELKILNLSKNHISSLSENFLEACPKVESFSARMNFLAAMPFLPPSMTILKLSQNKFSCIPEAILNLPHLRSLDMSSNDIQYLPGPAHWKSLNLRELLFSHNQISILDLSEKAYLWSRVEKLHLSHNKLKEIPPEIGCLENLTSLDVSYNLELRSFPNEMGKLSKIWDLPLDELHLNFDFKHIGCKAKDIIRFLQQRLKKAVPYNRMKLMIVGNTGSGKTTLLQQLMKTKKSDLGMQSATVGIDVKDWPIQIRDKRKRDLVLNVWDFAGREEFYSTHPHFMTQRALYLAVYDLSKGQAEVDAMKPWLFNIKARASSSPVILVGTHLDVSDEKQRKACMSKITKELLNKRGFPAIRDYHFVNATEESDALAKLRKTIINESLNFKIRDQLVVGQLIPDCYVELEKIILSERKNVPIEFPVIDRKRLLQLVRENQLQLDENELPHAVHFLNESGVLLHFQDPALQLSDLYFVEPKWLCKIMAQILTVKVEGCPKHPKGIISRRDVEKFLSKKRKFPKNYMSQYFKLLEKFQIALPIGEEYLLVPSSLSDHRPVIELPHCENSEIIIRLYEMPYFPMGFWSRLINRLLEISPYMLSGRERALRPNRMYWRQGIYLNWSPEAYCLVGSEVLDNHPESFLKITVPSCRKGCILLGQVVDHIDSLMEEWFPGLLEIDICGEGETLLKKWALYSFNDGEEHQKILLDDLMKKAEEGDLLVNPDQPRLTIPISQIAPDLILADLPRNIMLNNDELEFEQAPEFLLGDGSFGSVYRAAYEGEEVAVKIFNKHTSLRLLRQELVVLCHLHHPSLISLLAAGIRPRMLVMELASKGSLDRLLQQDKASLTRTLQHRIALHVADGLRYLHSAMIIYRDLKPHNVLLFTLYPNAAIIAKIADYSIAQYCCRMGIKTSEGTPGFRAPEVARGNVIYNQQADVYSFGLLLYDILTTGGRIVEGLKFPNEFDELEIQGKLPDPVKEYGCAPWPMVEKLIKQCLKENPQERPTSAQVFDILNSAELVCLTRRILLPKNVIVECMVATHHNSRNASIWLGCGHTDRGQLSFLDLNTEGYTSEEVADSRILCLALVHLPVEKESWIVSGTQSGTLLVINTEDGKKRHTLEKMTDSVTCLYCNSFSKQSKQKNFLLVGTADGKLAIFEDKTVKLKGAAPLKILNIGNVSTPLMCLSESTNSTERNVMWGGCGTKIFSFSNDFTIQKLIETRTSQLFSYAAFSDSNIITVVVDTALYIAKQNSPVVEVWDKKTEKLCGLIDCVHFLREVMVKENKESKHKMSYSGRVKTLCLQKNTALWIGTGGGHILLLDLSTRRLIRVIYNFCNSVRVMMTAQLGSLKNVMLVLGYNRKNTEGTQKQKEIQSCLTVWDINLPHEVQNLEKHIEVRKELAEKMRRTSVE

Chain of GST-tagged truncated LRRK2 (Q5S007 970-2527): as the sequence (Q5S007 970-2527 G2019S) above, with S1050G counted along it

Consider `CN(C)C(=O)CCNc1ncnc2[nH]cc(-c3cccc(C#N)c3)c12` [Example 31, N^3-[5-(3-cyanophenyl)-7H-pyrrolo[2,3-d]pyrimidin-4-yl]-N,N-dimethyl-beta-alaninamide], for which the IC50 in experiment [1] turned out to be 54 nM; at mutant G2019S LRRK2 it was 248 nM.
For `N#Cc1cccc(-c2c[nH]c3ncnc(N4CCC(F)(F)CC4)c23)c1` [Example 32, 3-[4-(4,4-difluoropiperidin-1-yl)-7H-pyrrolo[2,3-d]pyrimidin-5-yl]benzonitrile], in that order: 67 nM and 333 nM.
The like results for `N#Cc1cccc(-c2c[nH]c3ncnc(N4CCC(F)CC4)c23)c1` [Example 33, 3-[4-(4-fluoropiperidin-1-yl)-7H-pyrrolo[2,3-d]pyrimidin-5-yl]benzonitrile] were, in that order, 17 nM and 96 nM.
Consider `N#Cc1cccc(-c2c[nH]c3ncnc(N4CCC(F)CC4)c23)c1` [Example 33A, 3-[4-(4-fluoropiperidin-1-yl)-7H-pyrrolo[2,3-d]pyrimidin-5-yl]benzonitrile], for which the IC50 turned out to be 17 nM in experiment [1] and 56 nM against mutant G2019S LRRK2.
For `N#Cc1cccc(-c2c[nH]c3ncnc(N4CCC(c5cc[nH]n5)CC4)c23)c1` [Example 34, 3-{4-[4-(1H-pyrazol-3-yl)piperidin-1-yl]-7H-pyrrolo[2,3-d]pyrimidin-5-yl}benzonitrile], in that order: 69 nM and 136 nM.
Turning to `N#Cc1cccc(-c2c[nH]c3ncnc(N4CC[C@H](F)C4)c23)c1` [Example 35, 3-{4-[(3S)-3-fluoropyrrolidin-1-yl]-7H-pyrrolo[2,3-d]pyrimidin-5-yl}benzonitrile], the IC50 is 30 nM in experiment [1] and 155 nM on mutant G2019S LRRK2.
Turning to `N#Cc1cccc(-c2c[nH]c3ncnc(N4CCOC(c5cc[nH]n5)C4)c23)c1` (centres unmarked) [Example 36, 3-{4-[2-(1H-pyrazol-3-yl)morpholin-4-yl]-7H-pyrrolo[2,3-d]pyrimidin-5-yl}benzonitrile], the IC50 was found to be 43 nM in experiment [1] and 238 nM against mutant G2019S LRRK2.
The like results for `N#Cc1cccc(-c2c[nH]c3ncnc(N4CCCC(c5cc[nH]n5)C4)c23)c1` (centres unmarked) [Example 37, 3-{4-[3-(1H-pyrazol-3-yl)piperidin-1-yl]-7H-pyrrolo[2,3-d]pyrimidin-5-yl}benzonitrile] were, in that order, 84 nM and 200 nM.
The like results for `N#Cc1cccc(-c2c[nH]c3ncnc(N4CCCC(c5ncc[nH]5)C4)c23)c1` (centres unmarked) [Example 38, 3-{4-[3-(1H-imidazol-2-yl)piperidin-1-yl]-7H-pyrrolo[2,3-d]pyrimidin-5-yl}benzonitrile] were, in that order, 53 nM and 331 nM.
The like results for `CN1CCCC(Nc2ncnc3[nH]cc(-c4cccc(C#N)c4)c23)C1` (centres unmarked) [Example 39, 3-{4-[(1-methylpiperidin-3-yl)amino]-7H-pyrrolo[2,3-d]pyrimidin-5-yl}benzonitrile] were, in that order, 78 nM and 243 nM.
As to `N#Cc1cccc(-c2c[nH]c3ncnc(N4CCCC5(CNC(=O)C5)C4)c23)c1` (centres unmarked) [Example 40, 3-[4-(3-oxo-2,7-diazaspiro[4.5]dec-7-yl)-7H-pyrrolo[2,3-d]pyrimidin-5-yl]benzonitrile], the concentration for half-maximal inhibition (IC50) in experiment [1] was found to be 35 nM; at mutant G2019S LRRK2, 119 nM.
As for `N#Cc1cccc(-c2c[nH]c3ncnc(NCCN4CCOCC4)c23)c1` [Example 42, 3-(4-{[2-(morpholin-4-yl)ethyl]amino}-7H-pyrrolo[2,3-d]pyrimidin-5-yl)benzonitrile], the results for the IC50 (in experiment [1]; on mutant G2019S LRRK2) were 89 nM and 487 nM, respectively.
The like results for `N#Cc1cccc(-c2c[nH]c3ncnc(N4CCCC5(CCOC5)C4)c23)c1` (centres unmarked) [Example 43, 3-[4-(2-oxa-7-azaspiro[4.5]dec-7-yl)-7H-pyrrolo[2,3-d]pyrimidin-5-yl]benzonitrile] were, in that order, 34 nM and 244 nM.
For `CC(=O)NC1CCN(c2ncnc3[nH]cc(-c4cccc(C#N)c4)c23)CC1` [Example 44, N-{1-[5-(3-cyanophenyl)-7H-pyrrolo[2,3-d]pyrimidin-4-yl]piperidin-4-yl}acetamide], in that order: 50 nM and 190 nM.
For the compound `C[C@H]1CCCN(c2ncnc3[nH]cc(-c4ccc5[nH]ncc5c4)c23)C1` [Example 45, 5-(1H-indazol-5-yl)-4-[(3S)-3-methylpiperidin-1-yl]-7H-pyrrolo[2,3-d]pyrimidine], the IC50 in experiment [1] worked out at 67 nM; on mutant G2019S LRRK2, 66 nM.
For `C[C@H]1CCCN(c2ncnc3[nH]cc(-c4cccc(S(N)(=O)=O)c4)c23)C1` [Example 46, 3-{4-[(3S)-3-methylpiperidin-1-yl]-7H-pyrrolo[2,3-d]pyrimidin-5-yl}benzenesulfonamide], in that order: 24 nM and 33 nM.
As to `C[C@H]1CCCN(c2ncnc3[nH]cc(-c4ccccc4F)c23)C1` [Example 47, 5-(2-fluorophenyl)-4-[(3S)-3-methylpiperidin-1-yl]-7H-pyrrolo[2,3-d]pyrimidine], the IC50 was found to be 97 nM in experiment [1] and 122 nM against mutant G2019S LRRK2.
For `C[C@H]1CCCN(c2ncnc3[nH]cc(-c4cccc5[nH]ncc45)c23)C1` [Example 48, 5-(1H-indazol-4-yl)-4-[(3S)-3-methylpiperidin-1-yl]-7H-pyrrolo[2,3-d]pyrimidine], in that order: 10 nM and 14 nM.
The like results for `Cc1cc(-c2c[nH]c3ncnc(N4CCC[C@H](C)C4)c23)cnc1F` [Example 49, 5-(6-fluoro-5-methylpyridin-3-yl)-4-[(3S)-3-methylpiperidin-1-yl]-7H-pyrrolo[2,3-d]pyrimidine] were, in that order, 64 nM and 65 nM.
For `C[C@H]1CCCN(c2ncnc3[nH]cc(-c4ccc5c(c4)CNC5=O)c23)C1` [Example 50, 5-{4-[(3S)-3-methylpiperidin-1-yl]-7H-pyrrolo[2,3-d]pyrimidin-5-yl}-2,3-dihydro-1H-isoindol-1-one], in that order: 33 nM and 33 nM.
With `C[C@H]1CCCN(c2ncnc3[nH]cc(-c4cccnc4)c23)C1` [Example 51, 4-[(3S)-3-methylpiperidin-1-yl]-5-(pyridin-3-yl)-7H-pyrrolo[2,3-d]pyrimidine], the IC50 came to 56 nM in experiment [1] and 95 nM at mutant G2019S LRRK2.
The like results for `Cc1cncc(-c2c[nH]c3ncnc(N4CCC[C@H](C)C4)c23)c1` [Example 52, 4-[(3S)-3-methylpiperidin-1-yl]-5-(5-methylpyridin-3-yl)-7H-pyrrolo[2,3-d]pyrimidine] were, in that order, 15 nM and 19 nM.
Turning to `C[C@H]1CCCN(c2ncnc3[nH]cc(-c4cnc5[nH]ccc5c4)c23)C1` [Example 53, 4-[(3S)-3-methylpiperidin-1-yl]-5-(7H-pyrrolo[2,3-b]pyridin-5-yl)-7H-pyrrolo[2,3-d]pyrimidine], the half-maximal inhibitory concentration (IC50) in experiment [1] is 74 nM; against mutant G2019S LRRK2 it was 69 nM.
As to `C[C@H]1CCCN(c2ncnc3[nH]cc(-c4ccc5c(c4)C(=O)NC5)c23)C1` [Example 54, 6-{4-[(3S)-3-methylpiperidin-1-yl]-7H-pyrrolo[2,3-d]pyrimidin-5-yl}-2,3-dihydro-1H-isoindol-1-one], the concentration for half-maximal inhibition (IC50) in experiment [1] came out at 68 nM; against mutant G2019S LRRK2 it was 59 nM.
For `C[C@H]1CCCN(c2ncnc3[nH]cc(-c4cnc5cc[nH]c5c4)c23)C1` [Example 55, 4-[(3S)-3-methylpiperidin-1-yl]-5-(1H-pyrrolo[3,2-b]pyridin-6-yl)-7H-pyrrolo[2,3-d]pyrimidine], in that order: 53 nM and 50 nM.
As to `C[C@H]1CCCN(c2ncnc3[nH]cc(-c4ccc(O)cc4)c23)C1` [Example 56, 4-{4-[(3S)-3-methylpiperidin-1-yl]-7H-pyrrolo[2,3-d]pyrimidin-5-yl}phenol], the IC50 in experiment [1] worked out at 26 nM; on mutant G2019S LRRK2, 28 nM.
Regarding `C[C@H]1CCCN(c2ncnc3[nH]cc(-c4ccc(C(N)=O)cc4)c23)C1` [Example 57, 4-{4-[(3S)-3-methylpiperidin-1-yl]-7H-pyrrolo[2,3-d]pyrimidin-5-yl}benzamide], the IC50 in experiment [1] was determined as 13 nM; against mutant G2019S LRRK2 it was 9 nM.
For `C[C@H]1CCCN(c2ncnc3[nH]cc(-c4cccc(O)c4)c23)C1` [Example 58, 3-{4-[(3S)-3-methylpiperidin-1-yl]-7H-pyrrolo[2,3-d]pyrimidin-5-yl}phenol], in that order: 9 nM and 12 nM.
The like results for `Cc1cnc(Cl)c(-c2c[nH]c3ncnc(N4CCC[C@H](C)C4)c23)c1` [Example 59, 5-(2-chloro-5-methylpyridin-3-yl)-4-[(3S)-3-methylpiperidin-1-yl]-7H-pyrrolo[2,3-d]pyrimidine] were, in that order, 30 nM and 30 nM.
For `C[C@H]1CCCN(c2ncnc3[nH]cc(-c4cccc(C(N)=O)c4)c23)C1` [Example 60, 3-{4-[(3S)-3-methylpiperidin-1-yl]-7H-pyrrolo[2,3-d]pyrimidin-5-yl}benzamide], the concentration for half-maximal inhibition (IC50) is 86 nM in experiment [1] and 58 nM at mutant G2019S LRRK2.
For `N#Cc1cccc(-c2c[nH]c3ncnc(N4CCCC(F)C4)c23)c1` (centres unmarked) [Example 61, 3-[4-(3-fluoropiperidin-1-yl)-7H-pyrrolo[2,3-d]pyrimidin-5-yl]benzonitrile], in that order: 12 nM and 80 nM.
Regarding `CC1CCN(c2ncnc3[nH]cc(-c4cccc(C#N)c4)c23)CC1` [Example 62, 3-[4-(4-methylpiperidin-1-yl)-7H-pyrrolo[2,3-d]pyrimidin-5-yl]benzonitrile], the results for the half-inhibitory concentration (IC50) (in experiment [1]; against mutant G2019S LRRK2) were 91 nM and 273 nM, respectively.
For `C[C@H]1CCCN(c2ncnc3[nH]cc(-c4cccc(C(=O)O)c4)c23)C1` [Example 63, 3-{4-[(3S)-3-methylpiperidin-1-yl]-7H-pyrrolo[2,3-d]pyrimidin-5-yl}benzoic acid], the IC50 in experiment [1] came to 55 nM; against mutant G2019S LRRK2, 39 nM.
The like results for `CNc1ncnc2[nH]cc(-c3cccc(C#N)c3)c12` [Example 64, 3-[4-(methylamino)-7H-pyrrolo[2,3-d]pyrimidin-5-yl]benzonitrile] were, in that order, 45 nM and 97 nM.
